Where “and” joins values, the source holds several entries; their conditions need not be identical. Identical values can stand only once.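 96-well plates; 48 h exposure; 5 concentrations. Endpoints by linear interpolation between flanking doses. Not reached: highest tested concentration assigned. Here, GI50 denotes the concentration required for 50% inhibition of growth. Definition used: TGI = concentration required for complete inhibition of growth.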
How the values were obtained:
Test in all cases: NCI tumour cell line growth inhibition, 48 h
786-0 renal = test system: 786-0 renal
A498 renal = test system: A498 renal
DU-145 prostate = test system: DU-145 prostate
HCT-116 colon = test system: HCT-116 colon
HCT-15 colon = test system: HCT-15 colon
HOP-92 NSCLC = test system: HOP-92 NSCLC
RXF 393 renal = test system: RXF 393 renal
SR leukemia = test system: SR leukemia
U251 CNS = test system: U251 CNS
HL-60(TB) leukemia = test system: HL-60(TB) leukemia

SMILES | TGI (786-0 renal) | TGI (A498 renal) | TGI (DU-145 prostate) | TGI (HCT-116 colon) | TGI (HCT-15 colon) | TGI (HOP-92 NSCLC) | TGI (RXF 393 renal) | TGI (SR leukemia) | TGI (U251 CNS) | GI50 (A498 renal) | GI50 (DU-145 prostate) | GI50 (HCT-116 colon) | GI50 (HCT-15 colon) | GI50 (HOP-92 NSCLC) | GI50 (RXF 393 renal) | GI50 (SR leukemia) | GI50 (U251 CNS) | GI50 (HL-60(TB) leukemia) | TGI (HL-60(TB) leukemia)
O=C(CCCCCCCCC(=O)N1C(=O)CC(=O)N(c2cccc(Cl)c2)C1=S)N1C(=O)CC(=O)N(c2cccc(Cl)c2)C1=S | > 100 µM | > 100 µM | > 100 µM | > 100 µM | > 100 µM | 51.1 µM | > 100 µM | 67.8 µM | > 100 µM | – | – | – | – | – | – | – | – | – | –
C#CC(F)(F)[C@]1(O)CC[C@H]2[C@@H]3CCC4=CC(=O)CCC4=C3[C@@H](c3ccc(C(C)=O)cc3)C[C@@]21C | – | 84.8 µM | 95.1 µM | 42.6 µM | 56.8 µM | 0.356 µM | 39.8 µM | 37 µM | > 92.9 µM | 23.1 µM | 20.1 µM | 14.1 µM | 14.3 µM | 0.0456 µM | 13.4 µM | 0.868 µM | 17.7 µM | – | –
O=[Se](=O)c1ccccc1.O=[Se](=O)c1ccccc1.[Cu] | – | 38 µM | – | 33 µM | 34.1 µM | 37.3 µM | 29.2 µM | – | 30.9 µM | 20.1 µM | – | 17.4 µM | 16.4 µM | 21.4 µM | 15.3 µM | – | 17.1 µM | 6.51 µM | 15.4 µM
O=C1NC2(CCCCC2)C2CCCCCC12 (stereo unspecified) | – | > 100 µM | – | > 100 µM | > 100 µM | – | > 100 µM | > 100 µM | > 100 µM | – | – | – | – | – | – | – | – | – | > 100 µM
CCOC(=O)CNC(=O)C(C)NC(=O)C(NC(=O)CC(c1ncc[nH]1)c1ncc[nH]1)C(C)CC (stereo unspecified) | > 100 µM | > 100 µM | > 100 µM | > 100 µM | > 100 µM | > 100 µM | – | > 100 µM | > 100 µM | – | – | – | – | – | – | – | – | – | > 100 µM
COc1cccc(N(CN2CC=CC2=O)C(C)=O)c1 | > 100 µM | > 100 µM | > 100 µM | > 100 µM | > 100 µM | > 100 µM | > 100 µM | – | > 100 µM | – | – | – | – | – | – | – | – | – | > 100 µM
Cc1cc(-c2nc3ccccc3s2)ccc1NC(=O)[C@H](C)N | 23.7 µM | 28.6 µM | 29 µM | 23.4 µM | 37.1 µM | 35.5 µM | 25.4 µM | 13.4 µM | 33.9 µM | – | – | – | – | – | – | – | – | – | –
CSC1=C(C#N)C(=O)N(c2ccc(C)cc2)C(=S)C1C#N (stereo unspecified) | > 100 µM | > 100 µM | – | > 100 µM | > 100 µM | > 100 µM | > 100 µM | – | > 100 µM | – | – | – | – | – | – | – | – | – | > 100 µM
N#C[S-].[Nd+3].c1ccc(-c2ccccn2)nc1.c1ccc(-c2ccccn2)nc1.c1ccc(-c2ccccn2)nc1 | – | – | – | > 100 µM | > 100 µM | – | 24.8 µM | > 100 µM | > 100 µM | – | – | 8.4 µM | 3.82 µM | – | 3.89 µM | 6.9 µM | 4.18 µM | – | –
CCc1ccc2[nH]c(O)c(-c3[nH]c4ccccc4c3N=O)c2c1 | 18.9 µM | 15 µM | 22.5 µM | 10 µM | 15.1 µM | – | 11.2 µM | > 100 µM | 21.5 µM | – | – | – | – | – | – | – | – | – | –
CC(=O)OC(OC(C)=O)n1cc(C=O)c2ccccc21 | – | > 100 µM | > 100 µM | > 100 µM | > 100 µM | – | – | > 100 µM | > 100 µM | – | – | – | – | – | – | – | – | – | > 100 µM
Cc1cccc(C2=NC(C)(C)C(C)(C)N=C2c2cccc(C)n2)n1 | > 100 µM | > 100 µM | – | > 100 µM | > 100 µM | > 100 µM | > 100 µM | – | > 100 µM | – | – | – | – | – | – | – | – | – | > 100 µM
O=C1Nc2cc([N+](=O)[O-])ccc2NC1/C(=N\Nc1ccccc1)C(O)c1cccc([N+](=O)[O-])c1 (stereo unspecified) | > 100 µM | – | – | > 100 µM | 44.7 µM | > 100 µM | > 100 µM | – | > 100 µM | – | – | – | – | – | – | – | – | – | > 100 µM
NC(=O)C#CC(N)=O | > 58 µM | 197 µM and 154 µM and > 100 µM | – | 29.5 µM and > 100 µM | 76.2 µM and 100 µM and > 100 µM | 5.51 µM and 35.7 µM | 14.6 µM and 22.7 µM and 29.5 µM | 36.3 µM | 152 µM and 132 µM and > 100 µM | 71 µM | – | 15.1 µM and 37.5 µM | 20 µM and 26.2 µM and > 100 µM | – | 3.62 µM and 10.2 µM and 14.6 µM | – | 43 µM and 39.1 µM and > 100 µM | 1.95 µM | 4.29 µM and 4.03 µM and 6.3 µM
C=C(CC[C@@H](C(=O)O)[C@H]1[C@H](O)C[C@@]2(C)C3=CC[C@@H](C(=C)C)[C@](C)(CCC(=O)O)C3=CC[C@]12C)C(C)C | 31.1 µM | 38.8 µM | 38.9 µM | 30.7 µM | 31.4 µM | 33.7 µM | 34.5 µM | – | 32.8 µM | – | – | – | – | – | – | – | – | – | 36 µM
COC(=O)c1cc(C#N)[nH]c1-c1ccc(C)s1 | > 100 µM | 68.1 µM | > 100 µM | > 100 µM | > 100 µM | 82.1 µM | 46.7 µM | > 100 µM | > 100 µM | – | – | – | – | – | – | – | – | – | –
CN(C)Cc1cc(O)c(O)c(CN(C)C)c1 | > 100 µM | > 100 µM | > 100 µM | > 100 µM | > 100 µM | > 100 µM | > 100 µM | – | > 100 µM | – | – | – | – | – | – | – | – | – | 92 µM
Cc1cccc(NC(=O)C(=O)C(C(=O)c2ccccc2F)C2OC(=O)c3ccccc32)c1Cl (stereo unspecified) | – | > 100 µM | – | 45.3 µM | 73.3 µM | > 100 µM | – | > 100 µM | 36 µM | – | – | – | – | – | – | – | – | – | 56.2 µM
C1CCC(OC2CSC2)OC1 (stereo unspecified) | – | > 100 µM | > 100 µM | > 100 µM | > 100 µM | > 100 µM | > 100 µM | > 100 µM | > 100 µM | – | – | – | – | – | – | – | – | – | –
CCOC(=O)/C=C(\C(=O)OCC)n1ccc(N)nc1=O | > 100 µM | – | > 100 µM | > 100 µM | > 100 µM | > 100 µM | – | > 100 µM | > 100 µM | – | – | – | – | – | – | – | – | – | > 100 µM

— PubChem BioAssay (NCI)
